Data from patent US20220331303A1, “USE OF AN OREXIN 2 RECEPTOR AGONIST FOR THE TREATMENT OF EXCESSIVE SLEEPINESS” (Takeda Pharmaceutical Company Limited, priority 2019, published 2022).
Like-named read-outs stand apart in the source and are kept apart here.

Experiment: Multiple-dose plasma PK of IV Compound A in patients with NT2
Format: in vivo, human
Conditions: for Cmax / concentration at 1 h / concentration at 2 h / concentration at 4 h / concentration at 6 h / concentration at 9 h / Tmax / AUC(0-inf) / AUC(0-t) / AUC / clearance / Vd: human, plasma, intravenous; for concentration at 1 h: 1 Hour Postdose at Day 1; for concentration at 2 h: 2 Hours Postdose at Day 1; for concentration at 4 h: 4 Hours Postdose at Day 1; for concentration at 6 h: 6 Hours Postdose at Day 1; for clearance: read-out: CL Mean (converted)
Experimental: The purpose of the study was to evaluate the safety, tolerability, pharmacokinetics and pharmacodynamics of Compound A after multiple days of IV administration in patients with NT2. NT2 patients were evaluated in Cohort C1 and C2 (Table 30). Compound A or placebo were administered via IV infusion over 9 hours once daily for 7 days. A total of 14 patients with NT2 were treated with Compound A or placebo (5, 4, and 5 subjects in the placebo, Compound A 44 mg, and Compound A 112 mg groups, respectively). In this part, potential efficacy of Compound A was evaluated with MWT, ESS, KSS, night-time PSG (NPSG), and PGI-C as an exploratory PD assessment.
Blood samples used for PK analysis of Compound A was collected according to Table 31. See also FIG. 10 for whole schedules of study procedures.

Plasma Concentration Mean (Cmpd A 44 mg, 0.17 Hour after End of Infusion at Day 1): 45.48 ng/mL
Plasma Concentration Mean (Cmpd A 44 mg, 0.5 Hour after End of Infusion at Day 1): 33.98 ng/mL
Plasma Concentration Mean (Cmpd A 44 mg, 2 Hours after End of Infusion at Day 1): 16.33 ng/mL
Plasma Concentration Mean (Cmpd A 44 mg, 6 Hours after End of Infusion at Day 1): 5.020 ng/mL
Plasma Concentration Mean (Cmpd A 44 mg, 9 Hours Postdose at Day 5): 73.15 ng/mL
Plasma Concentration Mean (Cmpd A 44 mg, 9 Hours Postdose at Day 6): 65.80 ng/mL
Plasma Concentration Mean (Cmpd A 44 mg, 10 Hours after End of Infusion at Day 1): 2.515 ng/mL
Plasma Concentration Mean (Cmpd A 44 mg, 14 Hours after End of Infusion at Day 1): 0.7016 ng/mL
AUCtau D Mean (Cmpd A 44 mg, Day 1): 14.83 ng·h/mL/mg
Cmax D Mean (Cmpd A 44 mg, Day 1): 1.685 ng/mL/mg
t½z Mean (Cmpd A 44 mg, Day 1): 2.708 h
AUCtau D Mean (Cmpd A 44 mg, Day 7): 15.00 ng·h/mL/mg
Cmax D Mean (Cmpd A 44 mg, Day 7): 1.745 ng/mL/mg
PTR Mean (Cmpd A 44 mg, Day 7): 202.0
UCtau Geo Mean (Cmpd A 44 mg, Day 7): 657.1 ng·h/mL
UCtau Mean (Cmpd A 44 mg, Day 7): 660.0 ng·h/mL
t½z Mean (Cmpd A 44 mg, Day 7): 2.643 h
Plasma Concentration Mean (Cmpd A 44 mg, Predose at Day 1): 0.000 ng/mL
Plasma Concentration Mean (Cmpd A 44 mg, Predose at Day 5): 0.9273 ng/mL
Plasma Concentration Mean (Cmpd A 44 mg, Predose at Day 6): 0.7163 ng/mL
Plasma Concentration Mean (Cmpd A 44 mg, Predose at Day 7): 0.5635 ng/mL
Plasma Concentration Mean (Cmpd A 112 mg, 0.17 Hour after End of Infusion at Day 1): 81.03 ng/mL
Plasma Concentration Mean (Cmpd A 112 mg, 0.5 Hour after End of Infusion at Day 1): 75.26 ng/mL
Plasma Concentration Mean (Cmpd A 112 mg, 2 Hours after End of Infusion at Day 1): 32.46 ng/mL
Plasma Concentration Mean (Cmpd A 112 mg, 6 Hours after End of Infusion at Day 1): 12.03 ng/mL
Plasma Concentration Mean (Cmpd A 112 mg, 10 Hours after End of Infusion at Day 1): 5.610 ng/mL
AUCtau D Mean (Cmpd A 112 mg, Day 1): 13.52 ng·h/mL/mg
Cmax D Mean (Cmpd A 112 mg, Day 1): 1.540 ng/mL/mg
t½z Mean (Cmpd A 112 mg, Day 1): 2.800 h
AUCtau D Mean (Cmpd A 112 mg, Day 7): 13.68 ng·h/mL/mg
Cmax D Mean (Cmpd A 112 mg, Day 7): 1.550 ng/mL/mg
PTR Mean (Cmpd A 112 mg, Day 7): 201.1
UCtau Geo Mean (Cmpd A 112 mg, Day 7): 1519 ng·h/mL
UCtau Mean (Cmpd A 112 mg, Day 7): 1534 ng·h/mL
t½z Mean (Cmpd A 112 mg, Day 7): 3.136 h
Plasma Concentration Mean (Cmpd A 112 mg, Predose at Day 1): 0.000 ng/mL
Drug accumulation (QD 9-hour IV infusion daily for 7 days): no drug accumulation was observed
Cmax (44 mg, Cmax Geo Mean, Cmpd A 44 mg, Day 7): 76.4 ng/mL
concentration at 1 h (44 mg, Cmpd A 44 mg): 47.4 ng/mL
concentration at 2 h (44 mg, Cmpd A 44 mg): 59 ng/mL
concentration at 4 h (44 mg, Cmpd A 44 mg): 74.1 ng/mL
concentration at 6 h (44 mg, Cmpd A 44 mg): 50 ng/mL
concentration at 9 h (44 mg, Cmpd A 44 mg, 9 Hours Postdose at Day 1, read-out: Plasma Concentration Mean): 69 ng/mL
Tmax (44 mg, Cmpd A 44 mg, Day 1): 3.88 h
AUC(0-inf) (44 mg, Cmpd A 44 mg, Day 1, read-out: AUCinf Geo mean): 651 ng·h/mL
AUC(0-inf) (44 mg, Cmpd A 44 mg, Day 1, read-out: AUCinf Mean): 655 ng·h/mL
AUC(0-t) (44 mg, Cmpd A 44 mg, Day 1, read-out: AUClast Geo mean): 648 ng·h/mL
AUC(0-t) (44 mg, Cmpd A 44 mg, Day 1, read-out: AUClast Mean): 652 ng·h/mL
AUC (44 mg, Cmpd A 44 mg, Day 1, read-out: AUCtau Geo mean): 648 ng·h/mL
AUC (44 mg, Cmpd A 44 mg, Day 1, read-out: AUCtau Mean): 652 ng·h/mL
clearance (44 mg, Cmpd A 44 mg, Day 1): 1130 mL/min
concentration at 9 h (44 mg, Cmpd A 44 mg, Day 1, read-out: Ceoi Geo mean): 68.7 ng/mL
concentration at 9 h (44 mg, Cmpd A 44 mg, Day 1, read-out: Ceoi Mean): 69 ng/mL
Cmax (44 mg, Cmpd A 44 mg, Day 1, read-out: Cmax Geo mean): 73.9 ng/mL
Cmax (44 mg, Cmpd A 44 mg, Day 1, read-out: Cmax Mean): 74.1 ng/mL
Vd (44 mg, Cmpd A 44 mg, Day 1, read-out: Vss Mean): 122 L
Vd (44 mg, Cmpd A 44 mg, Day 1, read-out: Vz Mean): 288 L
Tmax (44 mg, Cmpd A 44 mg, Day 7): 3.91 h
AUC(0-t) (44 mg, Cmpd A 44 mg, Day 7, read-out: AUClast Geo Mean): 657 ng·h/mL
AUC(0-t) (44 mg, Cmpd A 44 mg, Day 7, read-out: AUClast Mean): 660 ng·h/mL
clearance (44 mg, Cmpd A 44 mg, Day 7): 1120 mL/min
Cmax (44 mg, Cmpd A 44 mg, Day 7, read-out: Cmax Mean): 76.7 ng/mL
Vd (44 mg, Cmpd A 44 mg, Day 7, read-out: Vss Mean): 114 L
Vd (44 mg, Cmpd A 44 mg, Day 7, read-out: Vz Mean): 258 L
Cmax (112 mg, Cmax Geo Mean, Cmpd A 112 mg, Day 7): 172 ng/mL
concentration at 1 h (112 mg, Cmpd A 112 mg): 123 ng/mL
concentration at 2 h (112 mg, Cmpd A 112 mg): 142 ng/mL
concentration at 4 h (112 mg, Cmpd A 112 mg): 170 ng/mL
concentration at 6 h (112 mg, Cmpd A 112 mg): 138 ng/mL
concentration at 9 h (112 mg, Cmpd A 112 mg, 9 Hours Postdose at Day 1, read-out: Plasma Concentration Mean): 150 ng/mL
Tmax (112 mg, Cmpd A 112 mg, Day 1): 4.93 h
AUC(0-inf) (112 mg, Cmpd A 112 mg, Day 1, read-out: AUCinf Geo mean): 1500 ng·h/mL
AUC(0-inf) (112 mg, Cmpd A 112 mg, Day 1, read-out: AUCinf Mean): 1520 ng·h/mL
AUC(0-t) (112 mg, Cmpd A 112 mg, Day 1, read-out: AUClast Geo mean): 1500 ng·h/mL
AUC(0-t) (112 mg, Cmpd A 112 mg, Day 1, read-out: AUClast Mean): 1520 ng·h/mL
AUC (112 mg, Cmpd A 112 mg, Day 1, read-out: AUCtau Geo mean): 1500 ng·h/mL
AUC (112 mg, Cmpd A 112 mg, Day 1, read-out: AUCtau Mean): 1520 ng·h/mL
clearance (112 mg, Cmpd A 112 mg, Day 1): 1260 mL/min
concentration at 9 h (112 mg, Cmpd A 112 mg, Day 1, read-out: Ceoi Geo mean): 156 ng/mL
concentration at 9 h (112 mg, Cmpd A 112 mg, Day 1, read-out: Ceoi Mean): 158 ng/mL
Cmax (112 mg, Cmpd A 112 mg, Day 1, read-out: Cmax Geo mean): 171 ng/mL
Cmax (112 mg, Cmpd A 112 mg, Day 1, read-out: Cmax Mean): 172 ng/mL
Vd (112 mg, Cmpd A 112 mg, Day 1, read-out: Vss Mean): 121 L
Vd (112 mg, Cmpd A 112 mg, Day 1, read-out: Vz Mean): 299 L
AUC(0-t) (112 mg, Cmpd A 112 mg, Day 7, read-out: AUClast Geo Mean): 1520 ng·h/mL
AUC(0-t) (112 mg, Cmpd A 112 mg, Day 7, read-out: AUClast Mean): 1530 ng·h/mL
clearance (112 mg, Cmpd A 112 mg, Day 7): 1240 mL/min
Cmax (112 mg, Cmpd A 112 mg, Day 7, read-out: Cmax Mean): 173 ng/mL
Vd (112 mg, Cmpd A 112 mg, Day 7, read-out: Vss Mean): 124 L
Vd (112 mg, Cmpd A 112 mg, Day 7, read-out: Vz Mean): 338 L
Structure (SMILES): COC(=O)N1CCC[C@H](NS(C)(=O)=O)[C@@H]1CO[C@H]1CC[C@@H](c2ccccc2)CC1 [Compound A, methyl (2R,3S)-3-((methylsulfonyl)amino)-2-(((cis-4-phenylcyclohexyl)oxy)methyl)piperidine-1-carboxylate]
Dose proportionality of mean plasma systemic exposures (daily 9-hour IV infusions, 44 and 112 mg): generally increased in a dose proportional manner
